# Data from patent US12396995B2, “Substituted 4-aminoisoindoline-1,3-dione compounds and second active agents for combined use” (Celgene Corporation, priority 2019, dated 2025).
# Legend:
# [1] = tested on: DB DLBCL xenograft tumors; assay: DB (DLBCL) xenograft model, Compound 1 alone and with tazemetostat; assay type: in vivo, female SCID mice; settings: for tumor volume reduction: 5 D on/2 D off
# Protocol: Anti-tumor activity of Compound 1 alone and in combination with tazemetostat was studied in DB (DLBCL) xenograft model. Compound 1 (3, 10 or 30 mg/kg) was administered once daily for 5 consecutive days followed by 2 days off (5 D on/2 D off) and tazemetostat (200 mg/kg) was administered twice daily (BID).
# Methods: Xenograft study was conducted with female SCID mice bearing DB DLBCL xenograft tumors. Female SCID mice were inoculated subcutaneously with DB cells in the flank region above the right hind leg. Following inoculation of animals, the tumors were allowed to grow to approximately 200 mm^3 prior to randomization. On day 33 following tumor cell inoculation, the mice bearing DB tumors ranging between 150 and 250 mm^3 were pooled together and randomized into various treatment groups. Compound 1 was formulated in 0.5% Methyl Cellulose, 0.25% Tween 80 and 50 mM Citrate pH 3 in water. Tazemetostat was formulated in CMC-Tween. Compound 1 (3, 10 or 30 mg/kg) was orally administered with three cycles of once daily for 5 consecutive days followed by 2 days off starting from day 33 after tumor cell inoculation. Tazemetostat (200 mg/kg) was orally administered twice day (BID) for three weeks. In combination group the animals received Compound 1 (3, 10 or 30 mg/kg, 5 D on/2 D off) and tazemetostat (200 mg/kg, BID) simultaneously for three weeks starting from day 33 after tumor cell inoculation. Tumors were measured twice a week using calipers and tumor volumes were calculated using the formula of W^2×L/2. Statistical analysis was performed using a one-way or 2-way analysis of variance (ANOVA). Synergy calculations were performed using fractional product method.
# [2] = tested on: primary CLL cells (CD5+CD19+ tumor cells); assay: Ex vivo apoptosis of B-cell CLL patient cells, Compound 1 with venetoclax (flow cytometry, Caspase 3); assay type: cell-based, human; settings: 144 hrs
# Protocol: CLL is characterized by accumulation of clonal CD5^+CD19^+ lymphocytes resistant to apoptosis. Venetoclax blocks the anti-apoptotic B-cell lymphoma-2 (Bcl-2) protein, leading to programmed cell death of CLL cells and is currently being tested in the clinic with different combinations for relapsed refractory patients. The effect of Compound 1 in combination with venetoclax on the proliferation and survival of CLL B cells was assessed utilizing an ex vivo model where primary CLL cells from patient-derived blood were stimulated to proliferate with 10% fetal bovine serum (FBS), 5 ng/mL recombinant human interleukine-4 (rh IL-4), 10 ng/mL recombinant human interleukine-10 (rh IL-10) and co-cultured with fibroblast expressing surface CD154 (CD40L) in a 96 well plate format.
# Peripheral blood mononuclear cells (PBMCs) from CLL patients (Table 6) containing 52%-86% of CD5^+CD19^+ tumor cells were cultured at a density of 0.06-0.1×10^6 cells/well on a monolayer of CD154-expressing fibroblasts at a density of 0.09×10^6 cells/well in 96-well plates in RPMI 1640 medium supplemented with 10% FBS, 5 ng/mL rh IL-4 and 10 ng/mL rh IL-10 and were simultaneously treated with vehicle control (0.1% DMSO) or increasing concentrations of Compound 1 ranging from 0.0001 to 1 μM and venetoclax at concentrations ranging from 0.001 to 10 μM across all the different concentrations of Compound 1. After 144 hrs of treatment with both the agents, flow cytometric analysis was used to determine the number of tumor cells that were viable or apoptotic.
# After 6 days of treatment, the tumor cell count was assessed by staining the patient PBMCs in each condition with tumor cell surface markers CD5 & CD19 along with Live/Dead fixable dye to exclude the dead cells and followed by intracellular staining for Caspase 3 antibody to identify the apoptotic cells and was measured by flow cytometry (Attune NxT, Thermo Fisher). The live tumor cell count for each condition was calculated by normalizing to the precision count beads added to each sample.
# For apoptosis analysis, the percentage of apoptosis combining both “early” (Caspase 3 positive and Live-Dead fixable dye negative) and “late” apoptosis (Caspase 3 and Live-Dead fixable dye positive) cell gates subtracting the baseline DMSO value was graphed using GraphPad Prism 8.0.0.0. The Ymax (maximal percentage of apoptosis achieved) values from apoptosis curves were calculated by performing a nonlinear regression curve fitting using log(agonist) vs. normalized response—Variable slope analysis and identifying the maximum value on GraphPad Prism 8.0.0 (Table 7).
# [3] = DMSO + Cpd1 DRC (no venetoclax)
smiles,measurement,setting,value
"O=C1CC[C@H](N2C(=O)c3cccc(NCc4ccc(CN5CC(N6CCOCC6)C5)cc4F)c3C2=O)C(=O)N1 [Compound 1, (S)-2-(2,6-dioxopiperidin-3-yl)-4-((2-fluoro-4-((3-morpholinoazetidin-1-yl)methyl)benzyl)amino)isoindoline-1,3-dione]",tumor volume reduction compared with vehicle control,[1]; Compound 1 3 mg/kg in combination with tazemetostat 200 mg/kg,99.1%
same,tumor volume reduction compared with vehicle control,[1]; Compound 1 10 mg/kg in combination with tazemetostat 200 mg/kg,100%
same,tumor volume reduction compared with vehicle control,[1]; Compound 1 30 mg/kg in combination with tazemetostat 200 mg/kg,100%
same,combination antitumor activity (fractional product method),"[1]; Compound 1 at 3, 10 or 30 mg/kg and tazemetostat at 200 mg/kg",synergistic
same,tumor volume reduction,[1]; single agent Compound 1 3 mg/kg oral,16.9%
same,tumor volume reduction,[1]; single agent Compound 1 10 mg/kg oral,41.11%
same,tumor volume reduction,[1]; single agent Compound 1 30 mg/kg oral,48.9%
same,animals tumor free,[1]; tazemetostat in combination with 3 mg/kg Compound 1,90%
same,animals tumor free,[1]; tazemetostat in combination with 10 mg/kg Compound 1,100%
same,animals tumor free,[1]; tazemetostat in combination with 30 mg/kg Compound 1,100%
same,"Ymax of Pt 11 (%), maximal apoptosis",[2]; [3],12.42%
same,"Ymax of Pt 12 (%), maximal apoptosis",[2]; [3],14.64%
same,"Ymax of Pt 13 (%), maximal apoptosis",[2]; [3],27.00%
same,"Ymax of Pt 14 (%), maximal apoptosis",[2]; [3],13.32%
same,"Ymax of Pt 11 (%), maximal apoptosis",[2]; venetoclax 0.001 uM + Cpd1 DRC,17.79%
same,"Ymax of Pt 12 (%), maximal apoptosis",[2]; venetoclax 0.001 uM + Cpd1 DRC,24.85%
same,"Ymax of Pt 13 (%), maximal apoptosis",[2]; venetoclax 0.001 uM + Cpd1 DRC,33.09%
same,"Ymax of Pt 14 (%), maximal apoptosis",[2]; venetoclax 0.001 uM + Cpd1 DRC,17.39%
same,"Ymax of Pt 11 (%), maximal apoptosis",[2]; venetoclax 0.01 uM + Cpd1 DRC,38.49%
same,"Ymax of Pt 12 (%), maximal apoptosis",[2]; venetoclax 0.01 uM + Cpd1 DRC,34.24%
same,"Ymax of Pt 13 (%), maximal apoptosis",[2]; venetoclax 0.01 uM + Cpd1 DRC,49.03%
same,"Ymax of Pt 14 (%), maximal apoptosis",[2]; venetoclax 0.01 uM + Cpd1 DRC,27.33%
same,"Ymax of Pt 11 (%), maximal apoptosis",[2]; venetoclax 0.1 uM + Cpd1 DRC,58.37%
same,"Ymax of Pt 12 (%), maximal apoptosis",[2]; venetoclax 0.1 uM + Cpd1 DRC,45.34%
same,"Ymax of Pt 13 (%), maximal apoptosis",[2]; venetoclax 0.1 uM + Cpd1 DRC,52.16%
same,"Ymax of Pt 14 (%), maximal apoptosis",[2]; venetoclax 0.1 uM + Cpd1 DRC,31.44%
same,"Ymax of Pt 11 (%), maximal apoptosis",[2]; venetoclax 1 uM + Cpd1 DRC,66.55%
same,"Ymax of Pt 12 (%), maximal apoptosis",[2]; venetoclax 1 uM + Cpd1 DRC,48.71%
same,"Ymax of Pt 13 (%), maximal apoptosis",[2]; venetoclax 1 uM + Cpd1 DRC,55.23%
same,"Ymax of Pt 14 (%), maximal apoptosis",[2]; venetoclax 1 uM + Cpd1 DRC,40.57%
same,"Ymax of Pt 11 (%), maximal apoptosis",[2]; venetoclax 10 uM + Cpd1 DRC,72.34%
same,"Ymax of Pt 12 (%), maximal apoptosis",[2]; venetoclax 10 uM + Cpd1 DRC,54.25%
same,"Ymax of Pt 13 (%), maximal apoptosis",[2]; venetoclax 10 uM + Cpd1 DRC,60.52%
same,"Ymax of Pt 14 (%), maximal apoptosis",[2]; venetoclax 10 uM + Cpd1 DRC,45.98%
